Source: US20240058283A1, “THE MODE OF ACTION OF N-MeDCPA ON TRPC CHANNELS” (West Virginia University Board of Governors on Behalf of …, priority 2022, published 2024)
Like-named read-outs stand apart in the source and are kept apart here.

Columns and labels:
rats = settings: rat, in vivo
[1] = Metabolite formation in human liver S9; type: in vitro ADME; settings: cofactors-fortified human liver S9, 37 degrees centigrade, 1 hour; LC-MS/MS
Description: Drug Synthesis—ELP-004 (N-MeDCPA) was synthesized as described in U.S. patent Ser. No. 10/682,320. […] Metabolites formed after incubations using either cofactors-fortified mouse or human liver S9 (mouse liver S9; human liver S9) at 37 degrees centigrade for 1 hour. The reaction was quenched by ultracentrifugation. The supernatant was analyzed using LC-MS/MS analysis using Accela LC (Thermo Scientific, Inc., San Jose, CA) coupled to an LTQ LX or to LTQ Orbitrap XL.
ELP-004 is N-(3,4-dichlorophenyl)-N-methylpropanamide. The core structure of ELP-004 is an aniline compound. Aniline compounds, generally, have a high risk of forming reactive metabolites. ELP-004 was specifically designed to preclude formation of reactive metabolites. Methylation of the amide nitrogen improves metabolic stability.

Jurkat cells = type: cell-based; parameters: dose or concentration left out as unconfirmed; settings: human
Description: ELP-004 (N-MeDCPA) was specifically developed to preclude metabolizing to two toxic metabolites, N—OH-dichloroaniline and 6-OH-dichloroaniline. In vitro assays for toxicity caused by ELP-004 using Jurkat cells show 50% toxicity at […] and <2% toxicity at […]. […] Thus, ELP-004 has high potential for use as a drug to prevent or reduce bone erosion.

TRPC3 = target: T1, TRPC3 (Homo sapiens, UniProt Q13507); experiment: OAG-induced Ca2+ entry in Fura2-loaded HEK293 cells expressing TRPC3; type: cell-based; settings: ELP-004 0 to 1 mM for 10 minutes before OAG, FIG. 1D, read-out: IC50, inhibition of OAG-induced Ca2+ entry
T1 construct: expressed in transfected cells
T1 sequence (Q13507 1-921): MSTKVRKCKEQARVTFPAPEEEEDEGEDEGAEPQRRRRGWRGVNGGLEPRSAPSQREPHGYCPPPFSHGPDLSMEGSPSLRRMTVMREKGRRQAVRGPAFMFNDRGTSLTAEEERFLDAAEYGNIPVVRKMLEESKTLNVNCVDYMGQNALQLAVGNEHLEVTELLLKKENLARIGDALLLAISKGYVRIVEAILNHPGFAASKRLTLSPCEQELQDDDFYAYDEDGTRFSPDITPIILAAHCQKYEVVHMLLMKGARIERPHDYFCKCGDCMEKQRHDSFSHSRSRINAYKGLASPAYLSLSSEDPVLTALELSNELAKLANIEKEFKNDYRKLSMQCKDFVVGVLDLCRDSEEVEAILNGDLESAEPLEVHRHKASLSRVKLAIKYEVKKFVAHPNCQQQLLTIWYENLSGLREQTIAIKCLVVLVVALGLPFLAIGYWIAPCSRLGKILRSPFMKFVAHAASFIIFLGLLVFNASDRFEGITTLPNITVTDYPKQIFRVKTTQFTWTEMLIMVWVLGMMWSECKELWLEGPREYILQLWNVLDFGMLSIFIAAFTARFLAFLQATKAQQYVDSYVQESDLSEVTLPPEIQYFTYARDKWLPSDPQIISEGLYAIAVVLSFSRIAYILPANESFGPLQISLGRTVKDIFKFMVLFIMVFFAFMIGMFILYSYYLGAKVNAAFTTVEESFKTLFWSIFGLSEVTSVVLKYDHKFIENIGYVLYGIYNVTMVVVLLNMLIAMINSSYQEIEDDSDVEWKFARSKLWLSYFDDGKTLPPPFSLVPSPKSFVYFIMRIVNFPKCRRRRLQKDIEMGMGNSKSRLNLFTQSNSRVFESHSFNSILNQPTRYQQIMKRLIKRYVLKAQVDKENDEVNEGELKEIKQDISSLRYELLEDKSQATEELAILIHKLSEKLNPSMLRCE
Description: Inhibition of DAG-mediated TRPC activation. To determine if ELP-004 (N-MeDCPA) inhibits DAG-induced TRPC activation, HEK293 cells expressing TRPC3, TRPC6 or TRPC7 were loaded with Fura2 and incubated with ELP-004 (0 to 1 mM) for 10 minutes prior to challenging with 1-Oleoyl-2-acetyl-sn-glycerol (OAG), a membrane permeable form of diacylglycerol.
Cell Culture—HEK293 cells were grown in DMEM with 4.5 g/L glucose supplemented with 10% FBS and 1% Gentamycin (Full DMEM media; Thermo-Fisher Scientific, Waltham, MA) at 37° C. and 5% CO2. […]
TRPC activity assay—Cells grown on glass coverslips were incubated in a cation-safe buffer (107 mM NaCl, 7.2 mM KCl, 1.2 mM MgCl2, 11.5 mM Glucose, 20 mM HEPES-NaOH, 1 mM CaCl2), pH 7.2) and loaded with Fura2-acetoxymethylester (Fura2-AM; 2 μM) for 30 min at 24° C. as previously described^10,11. […] Ca^2+/Sr^2+ measurements were taken using a Leica DMI 6000B fluorescence microscope controlled by Slidebook software (Intelligent Imaging Innovations, Denver, CO). Fluorescence emission at 505 nm was monitored in response to excitation at alternating 340 nm and 380 nm wavelengths at a frequency of 0.67 Hz; intracellular Ca^2+ measurements are shown at 340/380 nm ratios obtained from groups of 35-45 single cells.

Question: Which “oral LD50” value (rats) does the source give for `CCC(=O)N(C)c1ccc(Cl)c(Cl)c1` [ELP-004, N-(3,4-dichlorophenyl)-N-methylpropanamide] here?
Answer: > 2.5 g/kg body weight

Question: What about the “formation of reactive or toxic metabolites” value [1] of the same molecule?
Answer: No reactive or toxic compounds were formed

Question: And the toxicity (Jurkat cells; 200)?
Answer: < 2%

Question: What about the toxicity (Jurkat cells; 800) of the same molecule?
Answer: 50%

Question: And the IC50 (TRPC3)?
Answer: 1 to 2 µM
